In PMC7722873 (Scientific Reports, 2020):

Tests used:
VEEV TC-83 [1] = assay type: cell-based, Venezuelan equine encephalitis virus
VEEV TC-83 [2] = assay type: cell-based, Venezuelan equine encephalitis virus; remark: listed apart in the source
[3] = test system: VEEV TC-83 vaccine strain; settings: cited from earlier work
[4] = test system: wild-type Trinidad Donkey (TrD) strain of VEEV; settings: cited from earlier work

FQVVKFRFWVWWFRWR [G8]
VEEV TC-83 titer inhibition (VEEV TC-83 [1]): comparable to a known inhibitor, bortezomib

ILPWKWPWWPWRR-NH2 [Indolicidin, indolicidin]
antiviral activity against VEEV (VEEV TC-83 [2]): no antiviral activity

LL-37 (LLGDFFRKSKEKIGKEFKRIVQRIKDFLRNLVPRTES; Antibacterial peptide LL-37; UniProt P49913 134-170, looked up)
inhibition of viral titers [3]: approximately 100 fold | inhibition of viral titers [4]: ~1,000 fold
